Measurements: patent US4801616A, “Diphenylmethanone compounds and anti-inflammatory use thereof” (Eli Lilly and Company, priority 1986, dated 1989)

Experiments:
[1] = biological target: T1, 5-lipoxygenase (Cavia porcellus, UniProt A0A286X958); test: 5-Lipoxygenase (5-LPO) Assay, inhibition of 5-HETE formation in PMNL sonicate supernatant; assay type: biochemical, guinea pig; details: for inhibition at 30 µg/mL: percent inhibition at 30 μg/ml
T1 construct: incubating 0.2 ml of the supernatant obtained from the PMNL sonicate with the test compound; from tissue; host or cells: casein-elicited guinea pig peritoneal polymorphonuclear leukocytes (PMNL, more than 95 percent of the cells), sonicated, 30,000 x g supernatant
T1 sequence (A0A286X958 1-674): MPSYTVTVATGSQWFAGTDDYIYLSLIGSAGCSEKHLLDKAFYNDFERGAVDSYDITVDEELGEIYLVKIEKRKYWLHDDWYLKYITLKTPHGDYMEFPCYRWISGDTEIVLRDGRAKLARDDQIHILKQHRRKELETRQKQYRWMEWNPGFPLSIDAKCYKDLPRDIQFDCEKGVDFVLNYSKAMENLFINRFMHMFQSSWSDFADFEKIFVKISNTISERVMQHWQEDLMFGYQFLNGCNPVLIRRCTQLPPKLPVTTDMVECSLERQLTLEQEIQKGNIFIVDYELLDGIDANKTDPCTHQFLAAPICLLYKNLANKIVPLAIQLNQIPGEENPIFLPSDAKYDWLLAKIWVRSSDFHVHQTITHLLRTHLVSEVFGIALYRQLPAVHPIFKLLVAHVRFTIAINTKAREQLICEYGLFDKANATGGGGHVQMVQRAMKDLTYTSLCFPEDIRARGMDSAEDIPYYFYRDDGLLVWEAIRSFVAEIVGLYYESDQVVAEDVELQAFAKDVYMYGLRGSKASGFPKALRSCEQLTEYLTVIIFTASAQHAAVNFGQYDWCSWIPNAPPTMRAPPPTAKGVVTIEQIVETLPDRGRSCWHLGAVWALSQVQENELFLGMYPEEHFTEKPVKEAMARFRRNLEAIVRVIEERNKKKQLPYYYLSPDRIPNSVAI
Description: 5-Lipoxygenase (5-LPO) Assay
Ten milliliters of a 2% casein solution were injected intraperitoneally into guinea pigs weighing 250-300 gm. After 16-18 hours, the guinea pigs were killed by suffocation in a carbon dioxide chamber. The peritoneal cavity was infused with 70 ml of saline and 40-50 ml of the fluid were recovered from the cavity. After centrifugation, cell pellets were washed twice in Hank's balanced salt solution (HBSS) without calcium ion.
The cells were then suspended in 5 ml of sodium phosphate buffer, pH 7.1 containing 1 mM EDTA, and 0.1% gelatin. About 20-30×10^7 cells were obtained from one guinea pig.
The PMNL suspension was disrupted by five 1/2 second pulse sonications at the setting of 3 in a Branson Sonifier, Model 350, equipped with a microtip. The sonicates were combined and centrifuged at 30,000× g for 10 minutes. The supernatant was kept frozen at -70° C. until use.
Enzyme activity was determined by assaying for 5-HETE formation by first incubating 0.2 ml of the supernatant obtained from the PMNL sonicate with the test compound, 1 mM CaCl2, 2 mM ATP, and 1 mM GSH for 5 minutes at 37° C. The mixture is treated with 5 μM ^14 C-arachidonicacid and incubated at 37° C. an additional 10 minutes. The enzyme reaction was then stopped by the addition of 10 μl of 1M citric acid and 10μl of an alcohol solution containing 20 mg/ml each of indomethacin and butylated hydroxyanisole (BHA). The reaction mixture was spotted (50 μl on a silica gel plate (Baker TLC plate S1250-PA-19C) and subjected to TLC in a solvent system of ethyl acetate/2,2,4-trimethylpentane/glacial acetic acid/water (90:50:20:100).
The radioactivity of the arachidonic acid and its metabolites (5-HETE and LTB4) was visualized from a developed x-ray film which had been exposed to the TLC plate 1-2 days. The amount of 5-HETE formed was quantitated by scraping the silica gel area corresponding to the spot on the x-ray film, and the radioactivity determined in a Isocap/300 liquid scintillation counter (Searle Analytic, Inc.).
The percent inhibition of the formation of 5-HETE was determined for each concentration of test compound tested as compared to a control experiment wherein no test compound was added. The concentration and percent inhibition values were plotted on semi log paper and the concentration in which formation of 5-HETE is inhibited by 50% (IC50) was determined by interpolation.

[2] = biological target: T2, fatty acid cyclooxygenase (Homo sapiens, UniProt P23219); test: Fatty Acid Cyclooxygenase (FCO) Assay, inhibition of PGE2 formation by purified human platelet enzyme; assay type: biochemical; details: for IC50: human platelet microsomal enzyme, pH 8.0, 37° C.; for inhibition at 30 µg/mL: percent inhibition at 30 μg/ml
T2 construct: The solubilized fatty acid cyclooxygenase was applied to a 440 ml electrofocusing column; from tissue; host or cells: human platelets: microsomes solubilized with Triton X-100, purified by electrofocusing and G-200 Sephadex
Description: Fatty Acid Cyclooxygenase (FCO) Assay
Microsomes were prepared from 185 bags of human platelets (each bag containing the platelets from one pint of blood prepared using differential centrifugation procedures). The platelets from approximately 60 bags were prepared at one time. Platelet-rich plasma (500 g) was centrifuged at 10,000×g for 20 minutes, and the platelet pellet was suspended in 100 ml of 0.1M potassium phosphate buffer, pH 8.0, with a Teflon glass homogenizer and sonicated for 5.0 minutes with a Bronson Sonifier (Model 350) in a rosette flask cooled in ice water. Disrupted platelets were centrifuged 15 minutes at 10,000× g. The supernatant was centrifuged at 100,000× g for 90 minutes and the microsomal pellets were homogenized in 25 ml of 20% sucrose containing 1.0% Triton X-100 detergent. After 30 minutes at 4° C., the solubilized microsomes were centrifuged at 100,000× g for 60 minutes. The yellow supernatant was removed and stored at -70 ° C.
The solubilized fatty acid cyclooxygenase was applied to a 440 ml electrofocusing column (LKB-8012) containing 1% phisolytes (Brinkman Instruments, Westburgh, NY), pH 2-11, with the cathode at the top of the column. The enzyme was layered onto the column at the appropriate time so that its sucrose concentration was equal to that of the column gradient. This was accomplished by checking the gradient concentration periodically with a sucrose hand refractometer. Electrofocusing was carried out for 16 hours with an initial voltage of 400 V and a final voltage of 900-1,000 volts. Fractions were collected (20 ml) and assayed for PGE2 formation. Active peak fractions were pooled and concentrated by ultrafiltration (XM 100A) to a volume of 3-5 ml.
Active fractions from electrofocusing were applied to a G-200 Sephadex column (2 cm×46 cm) and eluted with 10 mM potassium phosphate buffer, pH 7.0, in 5 ml fractions. After assay, active fractions were poored and concentrated to 1.0 ml by ultrafiltration (XM 100A), and kept frozen at -70° C.
Enzyme activity was determined by assaying for PGE2 formation by preincubating the enzyme with 10 mmol/l imidazole phosphate buffer, pH 8.0, 2 mmol/l epinephrine, 2 mmol/l methemoglobin, and the test compound (30 μg/ml) in a total volume of 0.2 ml for one minute at 37° C. After preincubation, 5 mmol/l ^14 C-arachidonic acid were added and the mixture was incubated an additional 0.5 minutes at 37° C. The enzyme reaction was stopped by the addition of 2 μl of indomethacin (2 mg/ml) in alcohol.
The reaction mixture was spotted (50 μl) on a silica gel (LQ6D) plate and subjected to TLC. The solvent system consisted of chloroform-methanol-glacial acetic acid (90:5:5, v/v/v) and the relative mobilities were PGF2α =0.235, and PGE2 =0.47. The silica gel on the plate was scraped in 1 cm sections, suspended in 5 ml of the scintillation fluid [5.88 g of 2,5-diphenyloxazole and 118 mg of 1,4 -bis(5-phenyloxazol-2-yl)benzene] dissolved in 650 ml of toluene and 350 ml of Triton X-100) and the radioactivity was determined in an Isocap/300 liquid scintillation counter (Searle Analytic, Inc., Southfield, Mich.). Another 50 μl of the mixture was added to 10 ml of the Triton X-100 based scintillation fluid, and the radioactivity was determined so that the amount of radioactivity recovery from the TLC plate could be ascertained. PGE2 formation for each test compound was determined as a percent of control experiments wherein no test compound was added. Data is expressed in Table I either as the percent inhibition of formation of PGE2 at a test compound concentration of 30 μ g/ml, or as an IC50 for inhibition of PGE2 formation.

[3] = guinea pig PMNL sonicate supernatant, 37° C., 5 μM 14C-arachidonic acid

T2 sequence (P23219 24-599): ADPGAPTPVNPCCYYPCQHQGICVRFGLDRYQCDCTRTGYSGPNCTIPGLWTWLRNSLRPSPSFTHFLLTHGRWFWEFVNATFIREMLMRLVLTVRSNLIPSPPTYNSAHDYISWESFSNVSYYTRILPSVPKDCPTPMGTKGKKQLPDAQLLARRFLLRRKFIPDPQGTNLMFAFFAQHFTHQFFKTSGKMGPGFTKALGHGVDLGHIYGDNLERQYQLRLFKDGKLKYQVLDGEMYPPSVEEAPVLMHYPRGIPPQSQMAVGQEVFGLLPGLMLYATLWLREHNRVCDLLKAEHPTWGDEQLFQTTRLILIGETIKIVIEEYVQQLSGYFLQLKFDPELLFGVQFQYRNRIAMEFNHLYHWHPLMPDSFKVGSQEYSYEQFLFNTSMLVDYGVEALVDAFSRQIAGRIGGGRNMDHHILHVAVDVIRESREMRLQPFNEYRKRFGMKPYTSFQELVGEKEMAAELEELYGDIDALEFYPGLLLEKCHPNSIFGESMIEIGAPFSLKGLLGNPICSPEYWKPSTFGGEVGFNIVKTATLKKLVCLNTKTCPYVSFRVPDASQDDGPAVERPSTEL

IC50 [1, 3] [µM] | IC50 [2] [µM] | inhibition at 30 µg/mL [2] [%] | inhibition at 30 µg/mL [1] [%] | IC50 5-LPO (inhibition of 5-HETE formation) [1, 3] [µg/mL] | Molecule
0.954 | 17.5 | – | – | – | CCCc1c(OC)ccc(C(=O)c2ccccc2OC)c1OC [Example 1, (2,4-Dimethoxy-3-propylphenyl)(2-methoxyphenyl)methanone]
2.66 | 9.32 | – | – | – | CCCc1c(OC)ccc(C(=O)c2ccccc2O)c1OC [Example 2, (2,4-Dimethoxy-3-propylphenyl)(2-hydroxyphenyl)methanone]
1.05 | 4.89 | – | – | – | CCCc1c(OC)ccc(C(=O)c2ccccc2O)c1O [Example 3, (2-Hydroxy-4-methoxy-3-propylphenyl)(2-hydroxyphenyl)methanone]
11.2 | – | 12 | – | – | CCCc1c(OC(C)=O)ccc(C(=O)c2ccccc2OC(C)=O)c1O [Example 6, [4-(Acetyloxy)-2-hydroxy-3-propylphenyl][2(acetyloxy)phenyl]methanone]
63.6 | 17.5 | – | – | – | CCCc1cc(C(=O)c2ccccc2O)c(O)c(CCC)c1O [Example 7, (2,4-Dihydroxy-3,5-dipropylphenyl)(2-hydroxyphenyl)methanone]
17.2 | – | 100 | – | – | CCCc1c(O)ccc(C(=O)c2ccccc2Cl)c1O [Example 10, (2-Chlorophenyl)(2,4-dihydroxy-3-propylphenyl)methanone]
22.5 | 32.1 | – | – | – | CCCc1c(OCC#N)ccc(C(=O)c2ccccc2O)c1O [Example 12]
5.44 | – | 40 | – | – | CCCc1c(OCCCCCC#N)ccc(C(=O)c2ccccc2O)c1O [Example 13, 6-[3-Hydroxy-4-(2-hydroxybenzoyl)-2-propylphenoxy]hexanenitrile]
0.524 | – | 37 | – | – | CCCc1c(OCCCCCCC#N)ccc(C(=O)c2ccccc2O)c1O [Example 14, 7-[3-Hydroxy-4-(2-hydroxybenzoyl)-2-propylphenoxy]heptanenitrile]
– | – | 48 | 94 | – | CCCc1c(OCc2ccc(C#N)cc2)ccc(C(=O)c2ccccc2O)c1O [Example 17, 4-([3-Hydroxy-4-(2-hydroxybenzoyl)-2-propylphenoxy]methyl)benzonitrile]
21.8 | – | 15 | – | – | CCCc1c(OCCCCC#N)ccc(C(=O)c2ccccc2OC)c1O [Example 18, 5-[3-Hydroxy-4-(2-methoxybenzoyl)-2-propylphenoxy]pentanenitrile]
26.2 | – | 9 | – | – | CCCc1c(OCCCCC#N)ccc(C(=O)c2ccccc2OC)c1OC [Example 19, 5-[3-Methoxy-4-(2-methoxybenzoyl)-2-propylphenoxy]pentanenitrile]
79.1 | – | – | – | – | C=C(c1ccccc1OC)c1ccc(OCCCCC#N)c(CCC)c1OC [Example 20, 5-(3-Methoxy-4-[1-(2-methoxyphenyl)ethenyl]2-propylphenoxy)pentanenitrile]
– | – | 0 | 0 | – | CCCc1c(OCc2nnn[nH]2)ccc(C(=O)c2ccccc2O)c1O [Example 21, (2-Hydroxyphenyl)[2-hydroxy-3-propyl-4-(1H-tetrazol-5-ylmethoxy)phenyl]methanone]
9.29 | 32.5 | – | – | – | CCCc1c(OCc2ccc(-c3nnn[nH]3)cc2)ccc(C(=O)c2ccccc2O)c1O [Example 22, (2-Hydroxyphenyl)[2-hydroxy-3-propyl-4([4-(1H-tetrazol-5-yl)phenyl]methoxy)phenyl]methanone]
29.2 | – | – | – | – | CCCc1c(OCCCCCc2nnn[nH]2)ccc(C(=O)c2ccccc2O)c1O [Example 24, (2-Hydroxyphenyl)[2-hydroxy-3-propyl-4-([5-(1H-tetrazol-5-yl)pentyl]oxy)phenyl]methanone]
10.5 | – | 15 | – | – | CCCc1c(OCCCc2nnn[nH]2)ccc(C(=O)c2ccccc2O)c1O [Example 27, (2-Hydroxyphenyl)(2-hydroxy-3-propyl-4-[3-(1H-tetrazol-5-yl)propoxy]phenyl)methanone]
– | – | – | – | 8 | (2,3-Dihydro-4-hydroxy-2-methyl-7-benzofuranyl)(2-hydroxyphenyl)methanone [Example 8]

Molecule | IC50 [1, 3] [µM] | IC50 [2] [µM] | inhibition at 30 µg/mL [2] [%] | inhibition at 30 µg/mL [1] [%] | IC50 5-LPO (inhibition of 5-HETE formation) [1, 3] [µg/mL]
CCCc1c(OCCCCc2nnn[nH]2)ccc(C(=O)c2ccccc2OC)c1OC [Example 29, (2-Methoxyphenyl)(2-methoxy-3-propyl-4-[4-(1H-tetrazol-5-yl)butoxy]phenyl)methanone] | 14.1 | – | < 5 | – | –
CCCc1c(OCCCCc2nnn(C)n2)ccc(C(=O)c2ccccc2OC)c1O [Example 32, (2-Hydroxy-4-[4-(2-methyl-2H-tetrazol-5yl)butoxy]-3-propylphenyl)(2-methoxyphenyl)methanone] | 0.471 | – | – | – | –
